Values of other authors as cited in PMC8997995, “Amphiphilic Cell-Penetrating Peptides Containing Natural and Unnatural Amino Acids as Drug Delivery Agents” (Cells, 2022).

Set-up: method as in earlier work
Details: cited from earlier work
Description: In continuation of our efforts to design cyclic CPPs with improved molecular transporter properties, we report here the design and synthesis of a new class of CPPs, containing R, diphenylalanine (Dip), and W residues (Figure 1), the evaluation of their cytotoxicity, cellular uptake, nanostructure formation, and mechanism of actions.

SMILES: N[C@@H](Cc1c[nH]c2ccccc12)C(=O)O [W, tryptophan]
- Log P (partition coefficient): 1.82
